Consider 24 molecules from PMC4188605, “Biochemical and Pharmacological Characterization of the Human Lymphocyte Antigen B-Associated Transcript 5 (BAT5/ABHD16A)” (PLoS ONE, 2014).

For one assay, the target named is T1, ABHD6 (Mus musculus, UniProt Q8R2Y0).
T1 sequence (Q8R2Y0 1-336): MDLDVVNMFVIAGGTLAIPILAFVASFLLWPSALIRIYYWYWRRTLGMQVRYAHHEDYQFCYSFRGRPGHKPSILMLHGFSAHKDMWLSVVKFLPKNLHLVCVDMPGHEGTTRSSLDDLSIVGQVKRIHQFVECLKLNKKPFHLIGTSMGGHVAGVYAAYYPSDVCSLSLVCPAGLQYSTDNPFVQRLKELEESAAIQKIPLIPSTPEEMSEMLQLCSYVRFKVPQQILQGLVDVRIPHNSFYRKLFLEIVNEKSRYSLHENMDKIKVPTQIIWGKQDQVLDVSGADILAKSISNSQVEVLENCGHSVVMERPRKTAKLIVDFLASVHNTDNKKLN
Kind of assay: Competitive ABPP, mouse brain membrane proteome: ABHD6 band. Particulars: reference inhibitor at the indicated concentration, used to identify the band (refs 18, 23, 24).

In the next assay the target is T2, MAGL (Mus musculus, UniProt O35678).
T2 sequence (O35678 1-303): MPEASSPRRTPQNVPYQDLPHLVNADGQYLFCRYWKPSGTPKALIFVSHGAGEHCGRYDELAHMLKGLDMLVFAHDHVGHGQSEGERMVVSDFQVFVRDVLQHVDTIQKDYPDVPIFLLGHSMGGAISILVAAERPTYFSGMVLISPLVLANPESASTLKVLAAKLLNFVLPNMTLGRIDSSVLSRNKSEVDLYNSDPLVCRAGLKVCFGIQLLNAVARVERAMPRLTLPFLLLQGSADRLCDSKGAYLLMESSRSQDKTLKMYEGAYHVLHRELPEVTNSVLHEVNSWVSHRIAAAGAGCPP
Kind of assay: Competitive ABPP, mouse brain membrane proteome: MAGL doublet. Particulars: reference inhibitor at the indicated concentration, used to identify the band (refs 21, 22).

Assay [1] deals with T3, hBAT5 (Homo sapiens, UniProt O95870).
T3 sequence (O95870 1-558): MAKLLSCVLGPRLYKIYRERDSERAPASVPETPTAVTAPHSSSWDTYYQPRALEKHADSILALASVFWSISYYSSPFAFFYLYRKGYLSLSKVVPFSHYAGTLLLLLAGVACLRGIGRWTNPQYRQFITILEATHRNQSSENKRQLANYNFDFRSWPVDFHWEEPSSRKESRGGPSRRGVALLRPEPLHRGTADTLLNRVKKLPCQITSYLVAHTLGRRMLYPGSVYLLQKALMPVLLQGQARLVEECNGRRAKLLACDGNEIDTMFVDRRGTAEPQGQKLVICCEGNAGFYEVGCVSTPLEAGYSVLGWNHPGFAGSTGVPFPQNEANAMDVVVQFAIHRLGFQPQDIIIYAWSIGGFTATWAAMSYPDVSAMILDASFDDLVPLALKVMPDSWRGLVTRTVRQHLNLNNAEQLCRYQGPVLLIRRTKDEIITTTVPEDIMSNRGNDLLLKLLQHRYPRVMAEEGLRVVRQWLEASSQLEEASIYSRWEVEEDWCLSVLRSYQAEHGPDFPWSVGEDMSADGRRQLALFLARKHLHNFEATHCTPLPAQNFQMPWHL
Kind of assay: Inhibition of 1-LG hydrolysis in hBAT5-HEK293 lysates (fluorescent glycerol assay). It counts as biochemical. Details: host or cells: HEK293. As to conditions: for hBAT5 inhibitory activity (in words): 1-LG hydrolysis; for fold decrease in activity when methyl (40) is replaced: 5-position substituent, relative to 40; for remaining activity at 10 µM: at 10^-5 M.

The target of the next assay is T4, hABHD12 (Homo sapiens, UniProt Q8N2K0).
T4 construct: expressed in transfected cells; host or cells: HEK293
T4 sequence (Q8N2K0 1-398): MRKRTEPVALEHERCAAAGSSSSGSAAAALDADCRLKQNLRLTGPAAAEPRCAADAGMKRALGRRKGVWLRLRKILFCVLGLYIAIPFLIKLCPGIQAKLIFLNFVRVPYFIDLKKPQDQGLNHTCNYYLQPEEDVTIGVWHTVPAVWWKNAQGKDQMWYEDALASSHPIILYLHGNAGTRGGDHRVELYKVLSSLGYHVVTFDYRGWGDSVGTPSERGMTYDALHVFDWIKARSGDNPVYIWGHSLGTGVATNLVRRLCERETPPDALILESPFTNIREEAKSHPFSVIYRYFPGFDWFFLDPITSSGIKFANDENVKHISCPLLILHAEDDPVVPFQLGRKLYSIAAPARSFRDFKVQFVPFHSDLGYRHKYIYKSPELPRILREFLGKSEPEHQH
The experiment in a line: Free fatty acid release assay, hABHD12-HEK293 lysates. It counts as biochemical. Particulars: 25 µM substrate; without BSA; 10 and 20 min. As for the experimental part:
(§1) Figure 4 Fatty acid liberation from various substrates when incubated together with lysates of HEK293 cells expressing hBAT5 or hABHD12. […] Assay blank and fatty acid standard (C18∶1) were included for each condition. FFA content was determined at time-points 10 and 20 min. Data are mean ± SEM from quadruplicate wells in one experiment.
(§2) We adapted the Free Fatty Acid Assay Kit (Cayman Chemical Item Number 700310) to kinetically monitor fatty acid release from selected substrates using lysates of HEK293 cells (0.3 µg/well) transiently expressing hBAT5 or hABHD12 (as a positive control). The assay protocol was tailored to closely follow the scheme of the 96-well-plate glycerol assay with the exception that BSA was omitted. […] For each tested substrate, assay blank without enzyme and a fatty acid standard (C18∶1-FA, 500 pmol/well) was included.

For assay [2], the target named is T3, hBAT5. The experiment in a line: Free fatty acid release assay, hBAT5-HEK293 lysates. It counts as biochemical. Details: host or cells: HEK293. As to conditions: 25 µM substrate; without BSA; 10 and 20 min. Here is the method:
as §1, §2

The target in assay [3] is T3, hBAT5. The experiment in a line: hBAT5 substrate hydrolysis and Michaelis-Menten kinetics (glycerol assay, hBAT5-HEK293 lysates). As to conditions: 25 µM substrate.
Method: HEK293 cells were transiently transfected with the cDNA encoding hBAT5, as detailed in the Methods section. After 48 h, cells were harvested and lysates prepared for hydrolase activity measurements using a sensitive fluorescent glycerol assay. […] Glycerol production was determined at time-point 60 min.
After 48 h, cells were harvested and lysates prepared for hydrolase activity measurements. Cellular lysates (0.3 µg/well) were incubated together with the indicated concentrations of 1-LG in assay mixes containing (+ BSA) or not (– BSA) 0.5% (w/v) BSA (A) or with 15d-PGJ2-G in assay mix containing BSA (B). […] As crude cellular lysates were used, total protein concentration was used instead of true enzyme concentration. […] Values are mean ± SEM from three independent experiments.
Glycerol liberated from the hydrolysis of glycerolipid substrates was determined kinetically using a fluorometric assay, essentially as previously described [10]. Briefly, glycerol production was coupled via a three-step enzymatic cascade to hydrogen peroxide (H2O2) dependent generation of resorufin whose fluorescence (λex 530; λem 590 nm) was kinetically monitored using a Tecan Infinite M200 plate reader (Tecan Group Ltd., Männedorf, Switzerland). The assays routinely contained 0.5% (w/v) BSA (essentially fatty acid free) as a carrier for lipophilic compounds. […] The twelve MAG substrates were tested also in assays without BSA. In addition, four commercially available PG-Gs were included. To monitor assay performance, assay blanks without enzyme, cellular background (HEK293/Mock cell lysates) as well as a glycerol standard were included for each tested substrate. Fluorescence of the assay blank was subtracted before calculation of the final results.
The mark [4] stands for this setting: 1-LG 25 µM, 30 min inhibitor pretreatment, monitored 90 min, mean, n=3, read-out: IC50.
[5] abbreviates: printed as LogIC50 with negative sign, 1-LG 25 µM, 30 min pretreatment, Figures 9 and 10, read-out: LogIC50 Mean ± SEM, n=3 (converted).

Like-named read-outs stand apart in the source and are kept apart here.

For the molecule `CN(Cc1cccc(-c2ccncc2)c1)C(=O)Oc1ccc(-c2ccc(C(N)=O)cc2)cc1` [WWL70], the “inhibition of probe labeling of ABHD6 by reference inhibitor” value at ABHD6 is recorded as “inhibited”. Turning to `O=C(N1CCC(C(c2ccc3c(c2)OCO3)c2ccc3c(c2)OCO3)CC1)n1cncn1` [JJKK-048], on MAGL, the “inhibition of probe labeling of MAGL by reference inhibitor” value was “inhibited”.

Turning to `COc1nn(-c2ccccc2C)c(=O)o1` [compound 48], the “hBAT5 inhibitory activity (in words)” value on hBAT5 [1] is “inactive”. The remaining activity at 1 µM on hBAT5 [1] (at 10^-6 M, 1-LG 25 µM) amounted to 93.4 ± 1.9%.

Take `COc1nn(-c2cccc(C#N)c2)c(=O)o1` [compound 47]: the IC50 at hBAT5 [1] (setting [4]) was 78 nM.

Take `CCCCCCCC/C=C\CCCCCCCC(=O)OC[C@@H](O)COP(=O)(O)O` [LPA, 1-oleoyl-lysophosphatidic acid]: the “fatty acid release by hABHD12 (in words)” value on hABHD12 was “not from LPA”. Moreover, on hBAT5 [2], the “fatty acid release by hBAT5 (in words)” value is given as “no statistically significant liberation of oleic acid”. As to `CCCCC[C@H](O)/C=C/[C@H]1C(=O)C[C@H](O)[C@@H]1C/C=C\CCCC(=O)OCC(O)CO` (some centres unmarked) [PGD2-G, prostaglandin D2-1-glycerol ester], the “hydrolysis by hBAT5 (substrate utilization, in words)” value (shortened to “hydrolysis by hBAT5”) at hBAT5 [3] (with 0.5% BSA, 60 min) is given as “to lesser extend”. Regarding `CCOc1nn(-c2cccc([N+](=O)[O-])c2)c(=O)o1` [compound 51, 5-Ethoxy-3-(3-nitrophenyl)-1,3,4-oxadiazol-2(3H)-one], the IC50 at hBAT5 [1] (setting [4]) is 126 nM. Further, the “fold decrease in activity when methyl (40) is replaced” value (shortened to “fold decrease in activity when methyl”) at hBAT5 [1] was “about twofold”.

As to `CCCCC/C=C\C/C=C\C/C=C\C/C=C\CCCC(=O)OC[C@@H](O)CO` [1-AG, 1-arachidonoylglycerol], the “fatty acid release by hABHD12 (in words)” value on hABHD12 is listed as “hydrolyzed”. The “fatty acid release by hBAT5 (in words)” value on hBAT5 [2] is “hydrolyzed”. With `COc1nn(-c2ccccc2F)c(=O)o1` [compound 42], at hBAT5 [1] (setting [4]), the IC50 was 50 nM.

With `CCCCCCCC/C=C\CCCCCCCC(=O)OC[C@@H](O)COP(=O)(O)OC[C@H](N)C(=O)O` [LPS, 1-oleoyl-lysophosphatidylserine], on hABHD12, the “fatty acid release by hABHD12 (in words)” value is given as “catalyzed oleic acid release”. Besides, the “fatty acid release by hBAT5 (in words)” value at hBAT5 [2] is listed as “no statistically significant liberation of oleic acid”. For `CCCCC[C@H](O)/C=C/[C@H]1[C@H](O)CC(=O)[C@@H]1C/C=C\CCCC(=O)OCC(O)CO` (some centres unmarked) [PGE2-G, prostaglandin E2-1-glycerol ester], on hBAT5 [3] (with 0.5% BSA, 60 min), the “hydrolysis by hBAT5” value is “low”. In the case of `O=c1oc(OCc2ccccc2)nn1-c1cccc([N+](=O)[O-])c1` [compound 53, 5-(Benzyloxy)-3-(3-nitrophenyl)-1,3,4-oxadiazol-2(3H)-one], the “fold decrease in activity when methyl” value at hBAT5 [1] is recorded as 24 fold. For the same molecule, at hBAT5 [1] (setting [5]), the IC50 is 1480 nM.

Regarding `CCCCCCCCCCCCCCCCCC(=O)OC[C@@H](O)CO` [1-SG], the “hydrolysis by hBAT5” value at hBAT5 [3] (with 0.5% BSA, 60 min) is “not utilized”. In the case of `O=c1oc(Oc2ccc([N+](=O)[O-])cc2)nn1-c1cccc([N+](=O)[O-])c1` [compound 55, 5-(4-Nitrophenoxy)-3-(3-nitrophenyl)-1,3,4-oxadiazol-2(3H)-one], the “hBAT5 inhibitory activity (in words)” value at hBAT5 [1] is on record as “weakest inhibitor of this series”. The remaining activity at 10 µM on hBAT5 [1] (1-LG 25 µM) came out at 50.5 ± 3.7%. In the same order, the values of `COc1nn(Cc2cccc([N+](=O)[O-])c2)c(=O)o1` [compound 50, 5-Methoxy-3-(3-nitrobenzyl)-1,3,4-oxadiazol-2(3H)-one] are “loss of hBAT5 inhibitory activity” and 99.3 ± 4.7%. With `COc1nn(-c2cccc(F)c2)c(=O)o1` [compound 43], on hBAT5 [1] (setting [5]), the IC50 is 41.7 nM. Consider `COc1ccc(Oc2nn(-c3cccc([N+](=O)[O-])c3)c(=O)o2)cc1` [compound 54, 5-(4-Methoxyphenoxy)-3-(3-nitrophenyl)-1,3,4-oxadiazol-2(3H)-one], for which the IC50 at hBAT5 [1] (setting [4]) turned out to be 631 nM. In addition, the “fold decrease in activity when methyl” value on hBAT5 [1] is 10 fold. In the case of `CCCCCCCCCCCCCCCC(=O)OC(CO)CO` [MAGs C16∶0, 2-palmitoyl-rac–glycerol], at hBAT5 [3] (without BSA), the “hydrolysis by hBAT5” value is “barely detectable hydrolysis”.

Turning to `COc1nn(Cc2cccc(Oc3ccccc3)c2)c(=O)o1` [compound 49], the “hBAT5 inhibitory activity (in words)” value on hBAT5 [1] was “loss of hBAT5 inhibitory activity”. Also, at hBAT5 [1] (1-LG 25 µM), the remaining activity at 10 µM turned out to be 102 ± 8.2%.

As for `O=c1oc(Oc2ccccc2)nn1-c1cccc([N+](=O)[O-])c1` [compound 52, 3-(3-Nitrophenyl)-5-phenoxy-1,3,4-oxadiazol-2(3H)-one], on hBAT5 [1] (setting [4]), the IC50 turned out to be 138 nM. In addition, the “fold decrease in activity when methyl” value on hBAT5 [1] is on record as “about twofold”. With `COc1nn(-c2ccc([N+](=O)[O-])cc2)c(=O)o1` [compound 41, 5-Methoxy-3-(4-nitrophenyl)-1,3,4-oxadiazol-2(3H)-one], the IC50 at hBAT5 [1] (setting [4]) worked out at 339 nM. `CCCCC[C@H](O)/C=C/[C@@H]1[C@@H](C/C=C\CCCC(=O)OCC(O)CO)[C@@H](O)C[C@H]1O` (stereo partly drawn) [PG-F2α-G, prostaglandin F2α-1-glycerol ester]: on hBAT5 [3] (with 0.5% BSA, 60 min), the “hydrolysis by hBAT5” value is “low”. Consider `COc1nn(-c2ccc(I)cc2)c(=O)o1` [compound 46], for which the IC50 at hBAT5 [1] (setting [4]) stood at 355 nM. On the same count and under the same terms, the result for `COc1nn(-c2ccc(Br)cc2)c(=O)o1` [compound 45] reads 110 nM.
